# Tests used:
# [1] = target: T1, PLD2 (Homo sapiens, UniProt O14939); assay: In vitro PLD activity, exogenous substrate assay, PLD2; type: biochemical; conditions: purified recombinant PLD2, 30 min at 37° C.
# T1 construct: made in house
# Protocol: In FIG. 13A, MDA-MB-231 cells were plated as in FIGS. 12A-C and then shifted to either 10% serum or 0.5% serum overnight as indicated. Honokiol (20 μM) or control ethanol was then added for 4 hr as indicated, at which time the cells were harvested and the levels of PBt were determined as in FIGS. 12A-C. The experiment shown is representative of at least three independent experiments. In FIG. 13B, the effect of honokiol on the activity of PLD isoforms was measured using exogenous substrate assay as described previously (Henage et al., “Kinetic Analysis of a Mammalian Phospholipase D: Allosteric Modulation by Monomeric GTPases, Protein Kinase C, and Polyphosphoinositides,” J. Biol. Chem. 281:3408-17 (2006), which is hereby incorporated by reference in its entirety). […] The amount of background was determined and subtracted using a bovine serum albumin standard. […]
# For in vivo PLD activity, cells were plated in 60 mm culture dishes in DMEM with 10% serum at a density that would allow them to grow to about 80% confluence after 2 days, then cells were shifted to DMEM containing 0.5% or 10% serum as indicated in the figure legends overnight. […] Briefly, PLD activity was measured by the release of [methyl-^3H] choline from [choline-methyl-^3H]dipalmitoyl-phosphatidylcholine. […]
# [2] = test system: PLD activity in T24 cells; assay: In vivo PLD activity in T24 bladder cancer cells; type: cell-based, human; conditions: honokiol 20 μM, 4 hr
# Protocol: In FIG. 17A, T24 and Calu1 cells (obtained from the American Type Culture Collection) were plated in DMEM containing 10% serum for 48 hr and then shifted to either 10% serum or 0.5% serum overnight as indicated. Honokiol (20 μM) or control ethanol was then added for 4 hr as indicated. [^3H]-Myristate was added with the honokiol. After 4 hr, BtOH (0.7%) was added for 20 min, at which time the cells were harvested and the level of phosphatidyl-BtOH (P-Bt) was determined as in FIGS. 12A-C. The experiments shown are representative of at least two independent experiments. In FIG. 17B, T24 and Calu-1 cells were plated in DMEM with 10% serum for 48 hr then changed to DMEM containing either 10% or 0.5% serum overnight as indicated. […]
# For in vivo PLD activity, cells were plated in 60 mm culture dishes in DMEM with 10% serum at a density that would allow them to grow to about 80% confluence after 2 days, then cells were shifted to DMEM containing 0.5% or 10% serum as indicated in the figure legends overnight. […] Briefly, PLD activity was measured by the release of [methyl-^3H] choline from [choline-methyl-^3H]dipalmitoyl-phosphatidylcholine. […] Free [methyl-^3H] choline was separated from precipitated lipids and proteins by centrifugation and was analyzed by liquid scintillation counting. […]
# T1 sequence (O14939 whole entry): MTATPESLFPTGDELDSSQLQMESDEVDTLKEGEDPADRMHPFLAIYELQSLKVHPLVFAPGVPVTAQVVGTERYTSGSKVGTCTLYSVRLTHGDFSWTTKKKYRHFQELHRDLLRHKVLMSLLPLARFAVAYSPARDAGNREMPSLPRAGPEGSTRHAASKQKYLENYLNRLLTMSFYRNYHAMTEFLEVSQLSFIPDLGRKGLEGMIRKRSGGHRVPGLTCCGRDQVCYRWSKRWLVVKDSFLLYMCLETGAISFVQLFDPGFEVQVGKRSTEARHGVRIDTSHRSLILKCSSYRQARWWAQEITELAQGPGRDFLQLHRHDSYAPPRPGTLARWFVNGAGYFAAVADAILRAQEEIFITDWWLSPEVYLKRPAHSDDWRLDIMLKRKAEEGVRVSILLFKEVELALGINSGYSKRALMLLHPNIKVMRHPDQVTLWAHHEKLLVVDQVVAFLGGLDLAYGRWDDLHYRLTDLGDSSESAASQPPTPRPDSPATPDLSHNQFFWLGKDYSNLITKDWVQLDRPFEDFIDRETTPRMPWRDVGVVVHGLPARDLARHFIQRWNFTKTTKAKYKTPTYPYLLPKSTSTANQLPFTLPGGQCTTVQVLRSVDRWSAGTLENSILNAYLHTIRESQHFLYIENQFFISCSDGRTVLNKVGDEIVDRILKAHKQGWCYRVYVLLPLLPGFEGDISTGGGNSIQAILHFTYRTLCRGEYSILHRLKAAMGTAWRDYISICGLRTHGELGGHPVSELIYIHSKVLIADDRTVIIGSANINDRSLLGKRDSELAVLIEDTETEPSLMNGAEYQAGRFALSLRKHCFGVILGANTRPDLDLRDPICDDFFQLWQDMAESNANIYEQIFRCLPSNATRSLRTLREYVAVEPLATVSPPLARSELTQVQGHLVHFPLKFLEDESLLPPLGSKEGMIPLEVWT
compound,measurement,setting,value
"C=CCc1ccc(O)c(-c2ccc(O)c(CC=C)c2)c1 [honokiol, Honokiol]",in vitro activity of PLD2,[1],no significant effect
same,stress-induced PLD activity,[2]; 0.5% serum,suppressed
same,PLD activity observed in the presence of serum,[2]; 10% serum,little effect
